In brackets after ≈: the same amount, converted by molar mass. Read-outs that look alike come from different tables or passages of the source.
What was measured:
[1] = human
MCF7 cells = assay: High-throughput transcriptomics (HTTr, TempO-Seq), MCF7, 24 h; type: cell-based, human; details: MCF-7; for pod_httr_bifrost PoD: HTTr BIFROST PoD; for podl_path_minbmd PoD: HTTr minimum pathway BMD(L)
Method: (§1) HepG2, HepaRG, and MCF7 cells were treated with each compound for 24 h across a dose range of 7 concentrations and lysed using TempO-Seq lysis buffer (BioSpyder Technologies, proprietary kit, see [Middleton et al. 2022] for method details). Sequencing was performed using TempO-Seq (BioClavis) version 2 of the human whole transcriptome panel and analyzed as described previously in Middleton et al.

[2] = biological target: T1, Adenosine receptor A2a, ADORA2A (h) (Homo sapiens, UniProt P29274); assay: IPP ADORA2A binding (agonist radioligand); details: control NECA
T1 construct: purchased Eurofins Cerep (SafetyScreen44-based IPP panel)
T1 sequence (P29274 whole entry): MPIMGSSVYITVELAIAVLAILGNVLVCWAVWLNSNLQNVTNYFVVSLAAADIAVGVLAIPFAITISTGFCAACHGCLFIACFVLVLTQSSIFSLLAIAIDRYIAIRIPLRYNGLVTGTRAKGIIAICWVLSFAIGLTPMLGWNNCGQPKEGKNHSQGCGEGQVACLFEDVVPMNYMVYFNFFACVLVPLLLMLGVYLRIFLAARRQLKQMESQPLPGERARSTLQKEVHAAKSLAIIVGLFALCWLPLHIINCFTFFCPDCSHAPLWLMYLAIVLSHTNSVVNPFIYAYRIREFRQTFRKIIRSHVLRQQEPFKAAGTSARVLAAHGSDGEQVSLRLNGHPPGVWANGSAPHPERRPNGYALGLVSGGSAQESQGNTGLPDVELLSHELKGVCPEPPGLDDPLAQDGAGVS

physchem [3] = details: pH 5.22, water
[4] = cited from earlier work
[5] = test system: Thyroid hormone receptor alpha, THRA (h); assay: IPP THRA coactivator recruitment (agonist); type: biochemical, human; details: agonist, T3
Tubulin (r) = assay: IPP Tubulin binding; parameters: species or system rat; details: ligand/control Colchicine
HepaRG cells = assay: High-throughput transcriptomics (HTTr, TempO-Seq), HepaRG, 24 h; type: cell-based, human; details: HepaRG; for pod_httr_bifrost PoD: HTTr BIFROST PoD; for podl_path_minbmd PoD: HTTr minimum pathway BMD(L)
Method: as §1

[6] = test system: Glutamate receptor ionotropic NMDA 1 non-selective, GRIN1 (r)
[7] = biological target: Voltage-dependent L-type Ca2+ channel (dihydropyridine site), CACNA1C (r) (Rattus norvegicus, UniProt P22002); type: binding
Voltage-dependent L-type Ca2+ channel (dihydropyridine site), CACNA1C (r), sequence (P22002 whole entry): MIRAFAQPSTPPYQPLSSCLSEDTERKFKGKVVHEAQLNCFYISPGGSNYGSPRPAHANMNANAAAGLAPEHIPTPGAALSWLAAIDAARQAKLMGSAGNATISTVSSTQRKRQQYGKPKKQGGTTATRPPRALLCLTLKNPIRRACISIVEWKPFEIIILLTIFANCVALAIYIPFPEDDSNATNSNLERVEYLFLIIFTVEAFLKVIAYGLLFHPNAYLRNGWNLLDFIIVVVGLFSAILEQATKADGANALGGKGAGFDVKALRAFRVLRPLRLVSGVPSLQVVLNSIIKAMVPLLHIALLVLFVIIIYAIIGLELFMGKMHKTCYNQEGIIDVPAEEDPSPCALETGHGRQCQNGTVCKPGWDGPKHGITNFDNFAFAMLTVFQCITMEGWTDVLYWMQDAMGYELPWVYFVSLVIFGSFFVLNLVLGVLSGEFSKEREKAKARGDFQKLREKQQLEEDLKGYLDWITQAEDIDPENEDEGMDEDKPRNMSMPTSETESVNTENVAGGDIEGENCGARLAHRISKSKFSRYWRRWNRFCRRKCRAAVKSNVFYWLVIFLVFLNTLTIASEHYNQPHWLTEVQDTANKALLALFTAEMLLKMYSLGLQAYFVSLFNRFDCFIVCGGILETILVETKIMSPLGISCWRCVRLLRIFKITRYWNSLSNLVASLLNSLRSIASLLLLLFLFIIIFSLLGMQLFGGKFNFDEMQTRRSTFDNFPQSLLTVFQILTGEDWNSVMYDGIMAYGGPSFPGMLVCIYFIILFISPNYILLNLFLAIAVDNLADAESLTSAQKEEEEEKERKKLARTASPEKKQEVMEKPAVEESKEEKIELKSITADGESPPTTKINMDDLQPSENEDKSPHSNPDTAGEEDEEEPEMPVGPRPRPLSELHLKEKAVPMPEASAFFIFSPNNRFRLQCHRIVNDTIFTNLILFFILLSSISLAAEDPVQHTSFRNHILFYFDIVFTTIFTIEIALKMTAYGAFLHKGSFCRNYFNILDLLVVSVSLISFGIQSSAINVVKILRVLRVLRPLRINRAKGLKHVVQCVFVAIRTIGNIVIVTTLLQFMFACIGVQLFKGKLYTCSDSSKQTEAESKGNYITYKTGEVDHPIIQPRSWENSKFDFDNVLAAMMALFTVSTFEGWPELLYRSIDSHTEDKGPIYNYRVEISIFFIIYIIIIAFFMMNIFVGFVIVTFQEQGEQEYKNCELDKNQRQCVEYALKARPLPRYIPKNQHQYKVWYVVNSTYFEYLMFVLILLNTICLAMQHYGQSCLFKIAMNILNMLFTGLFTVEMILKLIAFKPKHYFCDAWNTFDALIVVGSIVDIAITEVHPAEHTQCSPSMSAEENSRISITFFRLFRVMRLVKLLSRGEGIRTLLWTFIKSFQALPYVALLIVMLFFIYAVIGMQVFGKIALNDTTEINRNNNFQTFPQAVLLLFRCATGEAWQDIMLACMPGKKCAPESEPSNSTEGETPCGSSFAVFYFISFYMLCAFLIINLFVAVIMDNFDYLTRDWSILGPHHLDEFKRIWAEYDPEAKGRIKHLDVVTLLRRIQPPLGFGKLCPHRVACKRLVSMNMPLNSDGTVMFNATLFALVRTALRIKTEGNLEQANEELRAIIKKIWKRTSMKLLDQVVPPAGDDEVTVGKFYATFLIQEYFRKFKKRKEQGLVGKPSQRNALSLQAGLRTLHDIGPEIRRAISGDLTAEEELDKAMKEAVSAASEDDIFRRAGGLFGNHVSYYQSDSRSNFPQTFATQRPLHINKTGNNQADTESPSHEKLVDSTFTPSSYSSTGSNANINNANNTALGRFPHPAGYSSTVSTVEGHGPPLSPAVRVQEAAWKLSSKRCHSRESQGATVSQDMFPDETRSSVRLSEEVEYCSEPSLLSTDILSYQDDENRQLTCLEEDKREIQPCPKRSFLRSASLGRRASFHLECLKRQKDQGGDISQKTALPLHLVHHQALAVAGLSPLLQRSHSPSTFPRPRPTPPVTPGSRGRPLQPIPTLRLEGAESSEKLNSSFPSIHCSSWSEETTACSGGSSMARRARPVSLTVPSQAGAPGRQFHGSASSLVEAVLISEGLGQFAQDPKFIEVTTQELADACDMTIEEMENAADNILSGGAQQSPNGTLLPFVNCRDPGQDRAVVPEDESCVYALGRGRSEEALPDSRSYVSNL

[8] = test system: Sodium channel protein type 5 subunit alpha (site 2), SCN5A (r); type: binding, rat
rat = details: cited from earlier work; for PoD (NOAEL): rat, ref ToxRefDB/Paul-Friedman et al. (2020)/regulatory opinions
HepG2 cells [9] = assay: Cell stress panel (CSP), 24 h, 8 concentrations, BIFROST global PoD; type: cell-based; details: for pod_cell_stress PoD: HepG2, cell stress panel PoD
Method: Compounds were tested using the previously developed cell stress panel ([Hatherell et al. 2020]) and the expanded biomarker panel outlined in Middleton et al. HepG2 cells were treated with all compounds for 24 h across 8 concentrations prior to biomarker analysis. The same plate layout and number of replicates (3 biological and 2 technical) were used as previously for each assay within the panel.

[10] = test system: Gamma-aminobutyric acid receptor subunit alpha-1 BZD site, GABRA1A (r); type: binding, rat
[11] = human; remark: listed apart in the source
HepG2 cells [12] = assay: High-throughput transcriptomics (HTTr, TempO-Seq), HepG2, 24 h; type: cell-based, human; details: HepG2; for pod_httr_bifrost PoD: HTTr BIFROST PoD; for podl_path_minbmd PoD: HTTr minimum pathway BMD(L)
Method: as §1

[13] = test system: Potassium Voltage-Gated Channel Kv non-selective, KCNQ1 (r); assay: IPP KCNQ1 binding (antagonist radioligand); parameters: species or system rat; details: control α-dendrotoxin
[14] = test system: 63 targets with known safety liabilities; assay: In vitro pharmacological profiling (IPP) panel, screening at 10 or 100 µM and dose response, minimum IC50/AC50; type: biochemical; details: lowest AC50 across IPP panel (systemic targets); cell_type -; read-out: ipp_lowest_ac50_systemic PoD
dog = details: 52 weeks, ref ToxRefDB/Paul-Friedman et al. (2020)/regulatory opinions; cited from earlier work
[15] = biological target: T2, Estrogen receptor, ER1 (h) (Homo sapiens, UniProt P03372); assay: IPP ER1 coactivator recruitment (agonist); type: biochemical; details: estriol
T2 construct: purchased Eurofins Cerep (SafetyScreen44-based IPP panel)
T2 sequence (P03372 1-595): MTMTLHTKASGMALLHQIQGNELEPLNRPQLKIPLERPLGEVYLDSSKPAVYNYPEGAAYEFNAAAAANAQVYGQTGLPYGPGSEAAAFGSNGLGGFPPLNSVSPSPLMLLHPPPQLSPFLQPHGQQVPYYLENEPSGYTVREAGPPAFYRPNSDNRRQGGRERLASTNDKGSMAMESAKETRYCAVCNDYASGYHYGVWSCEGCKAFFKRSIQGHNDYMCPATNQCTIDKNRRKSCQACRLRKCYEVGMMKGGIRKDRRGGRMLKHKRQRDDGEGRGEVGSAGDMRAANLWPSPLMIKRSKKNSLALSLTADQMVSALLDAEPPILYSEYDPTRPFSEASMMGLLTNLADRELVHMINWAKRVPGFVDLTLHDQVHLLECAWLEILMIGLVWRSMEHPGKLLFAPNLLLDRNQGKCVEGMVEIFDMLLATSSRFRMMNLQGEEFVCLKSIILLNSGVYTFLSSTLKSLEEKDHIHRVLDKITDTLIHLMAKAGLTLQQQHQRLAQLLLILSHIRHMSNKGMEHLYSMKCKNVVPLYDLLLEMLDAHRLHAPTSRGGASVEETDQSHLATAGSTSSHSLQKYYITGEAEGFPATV

[16] = biological target: T2, Estrogen receptor, ER1 (h); assay: IPP ER1 coactivator recruitment (antagonist); type: biochemical; details: estriol
[17] = biological target: Potassium voltage-gated channel subfamily H member 2 hERG, KCNH2 (h) (Homo sapiens, UniProt Q12809)
Potassium voltage-gated channel subfamily H member 2 hERG, KCNH2 (h), sequence (Q12809 whole entry): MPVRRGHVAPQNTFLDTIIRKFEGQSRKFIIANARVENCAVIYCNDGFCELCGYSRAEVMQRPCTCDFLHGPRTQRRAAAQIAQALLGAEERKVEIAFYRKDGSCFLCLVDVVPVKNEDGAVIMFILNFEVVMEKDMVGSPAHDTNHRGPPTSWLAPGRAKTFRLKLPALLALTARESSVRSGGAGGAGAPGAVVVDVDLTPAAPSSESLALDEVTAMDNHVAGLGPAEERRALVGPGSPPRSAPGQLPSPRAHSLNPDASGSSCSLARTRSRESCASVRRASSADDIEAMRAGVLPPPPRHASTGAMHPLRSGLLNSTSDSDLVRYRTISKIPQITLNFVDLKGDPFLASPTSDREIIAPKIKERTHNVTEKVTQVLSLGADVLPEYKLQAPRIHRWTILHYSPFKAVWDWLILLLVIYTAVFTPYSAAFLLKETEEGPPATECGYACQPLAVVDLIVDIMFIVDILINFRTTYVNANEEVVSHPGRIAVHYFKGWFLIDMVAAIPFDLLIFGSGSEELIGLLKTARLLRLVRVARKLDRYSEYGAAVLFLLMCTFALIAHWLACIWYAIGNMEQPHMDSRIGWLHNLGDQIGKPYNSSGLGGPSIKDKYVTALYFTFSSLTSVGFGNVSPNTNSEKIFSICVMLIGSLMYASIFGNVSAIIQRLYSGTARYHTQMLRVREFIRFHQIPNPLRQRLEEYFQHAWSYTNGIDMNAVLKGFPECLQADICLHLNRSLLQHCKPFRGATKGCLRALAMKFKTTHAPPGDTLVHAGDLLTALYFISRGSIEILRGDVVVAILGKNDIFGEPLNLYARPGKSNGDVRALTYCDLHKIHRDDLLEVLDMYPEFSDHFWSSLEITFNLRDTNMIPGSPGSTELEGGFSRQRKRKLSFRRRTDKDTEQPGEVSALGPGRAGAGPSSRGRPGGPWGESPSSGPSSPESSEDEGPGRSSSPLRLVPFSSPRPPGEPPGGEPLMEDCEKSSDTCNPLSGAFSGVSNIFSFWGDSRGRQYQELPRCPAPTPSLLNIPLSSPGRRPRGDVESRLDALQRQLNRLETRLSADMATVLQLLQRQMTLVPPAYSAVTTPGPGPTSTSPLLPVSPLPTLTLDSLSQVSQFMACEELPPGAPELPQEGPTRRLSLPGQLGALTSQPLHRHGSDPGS

[18] = biological target: 5-hydroxytryptamine receptor 2B, HTR2B (h) (Homo sapiens, UniProt P41595); assay: biochemical
5-hydroxytryptamine receptor 2B, HTR2B (h), sequence (P41595 whole entry): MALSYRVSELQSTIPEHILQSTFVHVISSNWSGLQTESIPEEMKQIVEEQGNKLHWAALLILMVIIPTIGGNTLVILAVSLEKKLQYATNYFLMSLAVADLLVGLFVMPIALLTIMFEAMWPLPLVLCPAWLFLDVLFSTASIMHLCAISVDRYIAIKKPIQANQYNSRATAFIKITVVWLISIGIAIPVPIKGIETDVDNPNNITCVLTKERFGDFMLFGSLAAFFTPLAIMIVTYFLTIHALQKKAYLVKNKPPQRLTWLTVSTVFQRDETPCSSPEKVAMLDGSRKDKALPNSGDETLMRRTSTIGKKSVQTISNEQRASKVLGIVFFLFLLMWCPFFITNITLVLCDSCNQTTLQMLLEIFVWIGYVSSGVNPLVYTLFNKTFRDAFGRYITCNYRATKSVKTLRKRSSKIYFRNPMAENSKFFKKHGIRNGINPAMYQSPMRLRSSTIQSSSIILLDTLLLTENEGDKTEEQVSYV

[19] = PBK input, ref [11], cited from earlier work
[20] = Assignment of risk classifications to benchmark chemical-exposure scenarios; details: for risk: Oral, from table S1
physchem [21] = assay: physchem
[22] = IV bolus 100 mg solution, 20 renal transplant patients, validation, ref Lin et al. 1980
[23] = IV bolus 100 mg solution, uremic patients, validation, ref Odlind et al. 1986
[24] = Oral tablet 100 mg, fasted, uremic patients, calibration, ref Odlind et al. 1986
[25] = 100 uM, * denotes assay interference (2-Amino-6-chloro-4-nitrophenol, HC Red 3)

## Cn1cnc([N+](=O)[O-])c1Sc1ncnc2nc[nH]c12 [Azathioprine, 6-[(1-Methyl-4-nitro-1H-imidazol-5-yl)sulfanyl]-7H-purine]
[1]
  Intrinsic Liver Clearance: 4323.84 L/h
MCF7 cells
  pod_httr_bifrost PoD: 0.1265 µM
  podl_path_minbmd PoD: 0.2237 µM
[2]; IPP screening at 10 uM
  Specific binding: 38.3%
Physchem [3]
  solubility: 231 µg/mL (≈ 833 µM)
[4]; [22]
  Reported AUC0-t: 430 ng·h/mL
  Reported cmax: 0.9163 µg/mL
  Reported tmax: 0 min
[4]; [23]
  Reported AUC0-t: 1032.5 ng·h/mL
  Reported cmax: 0.7498 µg/mL
  Reported tmax: 7.524 min
[4]; [24]
  Reported AUC0-t: 100 ng·h/mL
  Reported cmax: 0.0478 µg/mL
  Reported tmax: 32.87 min
[5]; 10 uM
  IPP screening %, Coactivator recruitment: 3.0%
Tubulin (r); 10 uM
  IPP screening %, Specific binding: 6.0%
HepaRG cells
  pod_httr_bifrost PoD: 0.8426 µM
  podl_path_minbmd PoD: 3.742 µM
[6]
  Specific binding: 4.2%
[7]
  Specific binding: -9.0%
[8]
  Specific binding: -8.7%
rat; 28 days, haematological changes
  PoD (NOAEL): 3 mg/kg bw/day
HepG2 cells [9]
  Bioactivity Observations: cell stress panel: The leading PoD is extrapolated below the lowest dose tested in the CSP
  pod_cell_stress PoD: 3.96e-05 µM
[10]
  Specific binding: 17.2%
[11]
  risk: 1
HepG2 cells [12]
  pod_httr_bifrost PoD: 0.01764 µM
  podl_path_minbmd PoD: 0.1634 µM
[13]; IPP screening at 10 uM
  Specific binding: 1.0%

## CC1(C)C(C=C(Cl)Cl)C1C(=O)OC(C#N)c1cccc(Oc2ccccc2)c1 (stereo not drawn) [Cypermethrin, Cyano(3-phenoxyphenyl)methyl 3-(2,2-dichloroethenyl)-2,2-dimethylcyclopropane-1-carboxylate]
[14]
  AC50: 490 nM
MCF7 cells
  pod_httr_bifrost PoD: 8.9686 µM
  podl_path_minbmd PoD: 25.4106 µM
[2]; IPP screening at 10 uM
  Specific binding: 0.1%
dog
  PoD (NOAEL): 1 mg/kg bw/day
[5]; 10 uM
  IPP screening %, Coactivator recruitment: 0.0%
Tubulin (r); 10 uM
  IPP screening %, Specific binding: 8.0%
HepaRG cells
  pod_httr_bifrost PoD: 4.402 µM
  podl_path_minbmd PoD: 35.2754 µM
[6]; IPP screening at 10 uM, control CGS 19755
  Specific binding: 11.4%
[15]; 10 uM
  IPP screening %, Coactivator recruitment: 0.0%
[8]; IPP screening at 10 uM, control veratridine
  Specific binding: -112.7%
rat; rat chronic study, route of administration not reported, ref not given
  Lowest NOAEL: Lowest NOAEL is 0.5 mg/kg from a rat chronic study, but the route of administration isn't reported. 1 mg/kg/day is NOAEL from 52 week dog study
HepG2 cells [9]
  pod_cell_stress PoD: 7.881 µM
[10]; IPP screening at 10 uM, control diazepam
  Specific binding: 5.5%
[16]; 10 uM
  IPP screening %, Coactivator recruitment: 0.0%
[17]; 10 uM, [3H] Dofetilide, control Terfenadine
  IPP screening %, Specific binding: 22.7%
HepG2 cells [12]
  pod_httr_bifrost PoD: 2.669 µM
  podl_path_minbmd PoD: 2.638 µM
[18]
  IC50: > 570 nM
[13]; IPP screening at 10 uM
  Specific binding: 0.9%

## CC(C)[C@H](N)C(=O)O [L-valine, L-Valine]
[19]; level L2
  pKa Value ACID: 2.3
[19]; levels L2/L3
  pKa Value BASE: 9.55
MCF7 cells
  pod_httr_bifrost PoD: 26.9475 µM
  podl_path_minbmd PoD: 43.6766 µM
[2]; IPP screening at 100 uM
  Specific binding: -4.2%
[20]; Oral 26 mg/kg bw/day
  Risk Classification: Low risk
[20]; Oral 4000 mg/day
  Risk Classification: Low risk
[20]; 26 mg/kg mean requirements, Tablet, Exp1
  risk: 0
[20]; Dietary 4000 mg/day, Food & Drink, Exp2
  risk: 0
[5]; [25]
  IPP screening %, Coactivator recruitment: 2.0%
Tubulin (r); 100 uM
  IPP screening %, Specific binding: 2.0%
HepaRG cells
  pod_httr_bifrost PoD: 162.177 µM
  podl_path_minbmd PoD: 351.712 µM
[6]; IPP screening at 100 uM, control CGS 19755
  Specific binding: 0.4%
[15]; [25]
  IPP screening %, Coactivator recruitment: 0.0%
[8]; IPP screening at 100 uM, control veratridine
  Specific binding: 12.2%
rat; repeat dose
  PoD (NOAEL): 666 mg/kg bw/day
HepG2 cells [9]
  pod_cell_stress PoD: 39.7854 µM
[10]; IPP screening at 100 uM, control diazepam
  Specific binding: 1.9%
[16]; [25]
  IPP screening %, Coactivator recruitment: -2.0%
[17]; human
  IPP screening %, Specific binding: -3.8%
HepG2 cells [12]
  pod_httr_bifrost PoD: 316.528 µM
  podl_path_minbmd PoD: 625 µM
Physchem [21]
  logP: -2.21
[13]; IPP screening at 100 uM
  Specific binding: 15.0%
